In patent publication US8637484B2, “Modulation of growth hormone receptor expression and insulin-like growth factor expression” (Antisense Therapeutic Limited, priority 2003, dated 2014):
In the oligonucleotide strings, read from the 5' end, every base follows the letter of its sugar. An asterisk marks phosphorothioate; unmarked linkages are phosphodiester. Other units and linkages are bracketed, terminal groups are in braces. A string of capitals states the bases alone. e = 2'-O-(2-methoxyethyl) (MOE); [5mC] = 5-methylcytosine; d = 2'-deoxy (DNA)

What was measured:
[1] = system: serum insulin-like growth factor-I; test: Serum IGF-I by radioimmunoassay, 1 week pilot study in Balb/C(a) mice; format: in vivo, mouse; conditions: for % IGF-I reduction: 30 mg/kg once every 2 days, serum IGF-I at day 7 compared to saline control at day 7
Description: Forty male Balb/C(a) mice weighing 9 to 10 g were placed into cages, 4 animals per cage, and allowed to assimilate into their environment with new littermates ˜1 week prior (Day −7) to the commencement of 1 week study. Mice of this age would be at their maximum growth rate. Their body weights were measured and recorded every second day during this period. When mice weighed 11 g (day −2), a blood sample was collected under anesthesia as described below, and a serum IGF-I assay was performed to determine pre-treatment values and to aid in the assigning of mice to treatment groups in order to reduce animal variability. To obtain the blood sample, the animals were anaesthetized with pentobarbital (50 mg/kg i.p.) and non-fasting blood samples collected exactly 5 minutes later from the retrobulbar plexus through heparinized capillary tubes under light ether anesthesia. The 40 animals were placed into five groups with each group having a similar weight average and similar IGF-I average concentration for the trial.
Animals (n=8/group) were designated to the following five treatment groups:
Saline, antisense, mismatch control and octreotide samples were prepared, and coded for blinding. Animals were given a subcutaneous dose of saline every second day, and mismatch control or antisense with administration on days 0, 2, 4, 6. Animals were given twice daily doses of 25 μg octreotide. Animals were housed 4 per cage, for the duration of one week. They had access to a pre-determined quantity of standard mouse food and water at all times throughout the experiment. They were housed in a quiet, temperature- and humidity-maintained environment for the entirety of the study. At day 0 and before treatment on each day or second day, the animals had their body weight and food intake measured, enabling the correct dose of agent to be administered. The animals were monitored closely for any changes in fur, skin, eye, locomotion or other changes in behavior. No problems were observed. Every second day from day −7 to day 7 body weight and food intake were measured.
On day 7, one day after the last dose of antisense, and/or after the last octreotide dose, the animals were anaesthetized with pentobarbital (50 mg/kg i.p.) and non-fasting blood samples collected exactly 5 minutes later from the retrobulbar plexus through heparinized capillary tubes under light ether anesthesia (as on day −7 and 0).
At day −2 and day 7, serum IGF-I measurement was done by radioimmunoassay. Serum IGF-I level is the most widely used measure of growth hormone biological activity in human therapy. It is used to measure the efficacy of growth hormone antagonist treatments like Trovert, which block cells' responsiveness to excess growth hormone, and dopamine agonists and octreotide somatostatin […] drugs that block growth hormone secretion from the pituitary.

growth hormone receptor = test: [125I] hGH specific binding assay on liver microsomal membranes of treated mice; format: in vivo, mouse
Description: Specific binding assays were carried out with liver tissue using iodinated human growth hormone [^125I] hGH.
Microsomal membrane preparations were obtained as follows. 400 mg of tissue powder was homogenized in cold homogenizing buffer (50 mM Tris/HCl, 250 mM sucrose, pH 7.4). This was centrifuged at 2000 rpm for 10 min at 3° C. and the supernatant was saved. This was centrifuged again at 15,000 rpm for 20 min. Pellets were resuspended in 0.5 ml of RRA buffer with inhibitor (50 mM Tris, 20 mM MgC12, pH 7.4). Microsomal preparation samples were stored at −80° C. until the specific binding assay.
The [^125I] hGH specific binding assay was done as follows. Four glass tubes were set up for each sample, two for (−), two for (+). Different sample and solutions were added in each tube as follows (i) 0.2 ml RRA buffer (50 mM Tris, 20 mM MgCl2, 0.1% BSA, pH 7.4); (ii) 0.1 ml membrane (1/2 or 1/4 dilution); (iii) 0.1 ml bGH (10 μg/ml) for the (+) tube or 0.1 ml RRA buffer for the (−) tube; and (iv) 0.1 ml [^125I]-hGH tracer.
Samples were incubated at 4° C. with shaking overnight. The reaction was stopped with 2.5 ml of cold RRA, and the sample centrifuged at 2800 rpm for 25 min at 4° C. Supernatant was aspirated and pellets counted using the γ-counter. The specific binding capacity was calculated as: CPM(−)-CPM(+) Protein content of the microsomal samples was determined by the BCA protein assay.

serum IGF-I [2] = test: Serum IGF-I, additional 1 week study in mice; format: in vivo, mouse; conditions: 50 mg/kg once every 2 days, day 7
Description: Male Balb/C(a) mice were prepared and grouped for analysis as in Example 18 above.
Animals (n=10/group) were designated to the following treatment groups:
Animals were treated and serum IGF-I levels were measured as in Example 18 above. Briefly, for the one-week study, mice were given a subcutaneous dose of saline every second day, and mismatch control or antisense with administration on days 0, 2, 4, 6. On day 7, the animals were anaesthetized with pentobarbital and non-fasting blood samples collected exactly 5 minutes later from the retrobulbar plexus through heparinized capillary tubes under light ether anesthesia. Serum IGF-I measurement was done by radioimmunoassay at day 7.

serum IGF-I [3] = test: Serum IGF-I, two-week mouse study; format: in vivo; conditions: for % decrease relative to 3 mg/kg ISIS 227446: day 14
Description: A two-week study was done in similar fashion to the one-week study in Example 18, this time using ISIS 227446 at doses of 3, 5, 10, 20 and 30 mg/kg. The mismatch control was given at the same doses. Mice were treated with antisense compound or saline every other day for 14 days.
P-values were determined by t-test.

[4] = 30 mg/kg sc every second day for one week
[5] = 30 mg/kg every second day for one week, liver membranes

acaaagatccatacctgaga (eA*e[5mC]*eA*eA*eA*dG*dA*dT*d[5mC]*d[5mC]*dA*dT*dA*d[5mC]*d[5mC]*eT*eG*eA*eG*eA; antisense) [ISIS 227446]
effect on serum IGF-I ([1]; 3 mg/kg once every 2 days, day 7): no effect | IGF-I (ng/ml) Day 7 ([1]; 3 mg/kg sc once every 2 days (days 0, 2, 4, 6)): 129.63 ± 33.76 ng/mL | % IGF-I reduction [1]: 45% | % IGF-I reduction ([1]; listed as ASO): 44.51% | serum IGF-1, % of the control (saline) group [1, 4]: 55% | IGF-I (ng/ml) Day 7 ([1]; 30 mg/kg sc once every 2 days (days 0, 2, 4, 6)): 56.95 ± 10.34 ng/mL | IGF-I (ng/ml) Day −2 ([1]; pre-treatment value of the group given 3 mg/kg sc once every 2 days): 216.23 ± 78.14 ng/mL | IGF-I (ng/ml) Day −2 ([1]; pre-treatment value of the group given 30 mg/kg sc once every 2 days): 181.84 ± 71.32 ng/mL | reduction of specific binding compared to saline, ¼ dilution (growth hormone receptor; 30 mg/kg): 39% | reduction of specific binding compared to saline, ½ dilution (growth hormone receptor; 30 mg/kg): 26% | Specific binding/mg protein (cpm) ¼ dilution (growth hormone receptor; [5]): 5546 ± 789 cpm | Specific binding/mg protein (cpm) ½ dilution (growth hormone receptor; [5]): 4205 ± 534 cpm | growth hormone receptor levels (growth hormone binding activity), % of control (saline) group (growth hormone receptor; [4]): 61% | growth hormone receptor levels, % of the control (mismatch) group (growth hormone receptor; 30 mg/kg, ½ dilution experiment): 59% | reduction of serum IGF-I relative to saline control (serum IGF-I [2]): 33% | reduction of serum IGF-I relative to the unrelated control (serum IGF-I [2]): 20% | Day 14 serum IGF-I (serum IGF-I [3]; 3 mg/kg every other day for 14 days): 214 ng/mL | effect on serum IGF-I levels (serum IGF-I [3]; 3 mg/kg, 14 days, equivalent to saline control (separate experiment)): no effect | % decrease relative to 3 mg/kg ISIS 227446 (serum IGF-I [3]; 3 mg/kg): 0% | Day 14 serum IGF-I (serum IGF-I [3]; 5 mg/kg every other day for 14 days): 194 ng/mL | % decrease relative to 3 mg/kg ISIS 227446 (serum IGF-I [3]; 5 mg/kg): 9% | Day 14 serum IGF-I (serum IGF-I [3]; 10 mg/kg every other day for 14 days): 130 ng/mL | % decrease relative to 3 mg/kg ISIS 227446 (serum IGF-I [3]; 10 mg/kg): 39% | Day 14 serum IGF-I (serum IGF-I [3]; 20 mg/kg every other day for 14 days): 122 ng/mL | % decrease relative to 3 mg/kg ISIS 227446 (serum IGF-I [3]; 20 mg/kg): 43% | Day 14 serum IGF-I (serum IGF-I [3]; 30 mg/kg every other day for 14 days): 126 ng/mL | % decrease relative to 3 mg/kg ISIS 227446 (serum IGF-I [3]; 30 mg/kg): 41% | decrease in serum IGF-I levels compared to 3 mg/kg (serum IGF-I [3]; >10 mg/kg, 14 days): 39-43%
